Oligonucleotides are written 5' to 3', each unit as a sugar letter and its base; * is a phosphorothioate linkage, no mark a phosphodiester; rarer units and linkages stand in square brackets, end groups in braces. Plain capitals give the bases only. d = 2'-deoxy (DNA)
Legend:
Assay in all cases: Relative colony forming efficiency (Example 17, Table 13)
Format in all cases: cell-based, human
[1] = tested on: MDA-MB-231 breast cell adenocarcinoma; conditions: averages of 2-8 determinations
Protocol: (§1) Colony forming efficiency was determined using standard protocols. […] The test oligonucleotides were added to cell cultures in the presence of 2.5 μg of DOTMA/DOPE (Lipofectin; Life Technologies, Inc.) for four hours. The oligonucleotide was tested at 0.2 μM unless otherwise indicated. Controls were the cultures treated with lipofectin but without the oligonucleotide. […] Surviving cells were visualized by methylene blue staining, and colonies were scored. In some experiments cell aliquots were removed from the culture and viability was determined using the trypan blue exclusion test. Results were analyzed as percent of surviving cells compared to control cells. To test the antisense effects of many of these sequences as phosphorthioate deoxyribonucleotides, they were examined in relative colony forming experiments conducted as described in Example 16 with a series of human tumour cell lines. The results (shown as % inhibition of colony forming ability) obtained with cancer cells derived from the bladder, breast, lung, colon, pancreas, prostate, liver and cervix, are shown in Table 13. The specific cell lines employed are as follows: […]

[2] = tested on: HepG2 hepatocellular carcinoma; conditions: averages of 2-8 determinations
Protocol: as §1

[3] = tested on: MDA PaCa-2 pancreatic cell carcinoma; conditions: MIA PaCa-2 pancreatic cell carcinoma; averages of 2-8 determinations
Protocol: as §1

[4] = tested on: T24 bladder cell carcinoma; conditions: averages of 2-8 determinations
Protocol: as §1

[5] = tested on: PC-3 prostrate cell adenocarcinoma; conditions: averages of 2-8 determinations
Protocol: as §1

[6] = tested on: HCT116 colon cell carcinoma; conditions: averages of 2-8 determinations
Protocol: as §1

A549 lung cell carcinoma = conditions: averages of 2-8 determinations
Protocol: as §1

Substance: ACCCTTCCCATTGGCTGCGC (antisense dA*dC*dC*dC*dT*dT*dC*dC*dC*dA*dT*dT*dG*dG*dC*dT*dG*dC*dG*dC) [AS-II-6-20]
- Reduced relative colony forming efficiency, MDA-MB-231 (% inhibition of colony forming ability) [1]: 85.4%
- Reduced relative colony forming efficiency, HepG2 (% inhibition of colony forming ability) [2]: 97.89%
- Reduced relative colony forming efficiency, MIA PaCa-2 (% inhibition of colony forming ability) [3]: 95.15%
- Reduced relative colony forming efficiency, T24 (% inhibition of colony forming ability) [4]: 73.55%
- Reduced relative colony forming efficiency, PC-3 (% inhibition of colony forming ability) [5]: 59.21%

Substance: AS-II-218220 (antisense dC*dG*dT*dT*dG*dA*dG*dG*dA*dA*dA*dA*dT*dA*dC*dA*dG*dT*dG*dA)
- Reduced relative colony forming efficiency, HCT116 (% inhibition of colony forming ability) [6]: 77.66%
- Reduced relative colony forming efficiency, MDA-MB-231 (% inhibition of colony forming ability) [1]: 84.95%
- Reduced relative colony forming efficiency, A549 (% inhibition of colony forming ability) (A549 lung cell carcinoma): 90.97%
- Reduced relative colony forming efficiency, HepG2 (% inhibition of colony forming ability) [2]: 95.48%
- Reduced relative colony forming efficiency, MIA PaCa-2 (% inhibition of colony forming ability) [3]: 56.43%
- Reduced relative colony forming efficiency, T24 (% inhibition of colony forming ability) [4]: 67.76%
- Reduced relative colony forming efficiency, PC-3 (% inhibition of colony forming ability) [5]: 85.91%

Substance: ATGGAAAAAAAAAATCAGCC (antisense dA*dT*dG*dG*dA*dA*dA*dA*dA*dA*dA*dA*dA*dA*dT*dC*dA*dG*dC*dC) [AS-II-1390-20]
- Reduced relative colony forming efficiency, HCT116 (% inhibition of colony forming ability) [6]: 62.18%
- Reduced relative colony forming efficiency, MDA-MB-231 (% inhibition of colony forming ability) [1]: 66.89%
- Reduced relative colony forming efficiency, A549 (% inhibition of colony forming ability) (A549 lung cell carcinoma): 88.31%
- Reduced relative colony forming efficiency, HepG2 (% inhibition of colony forming ability) [2]: 90.21%
- Reduced relative colony forming efficiency, MIA PaCa-2 (% inhibition of colony forming ability) [3]: 82.77%
- Reduced relative colony forming efficiency, T24 (% inhibition of colony forming ability) [4]: 61.13%
- Reduced relative colony forming efficiency, PC-3 (% inhibition of colony forming ability) [5]: 76.76%

Substance: CACACAACCTACTTACACCA (antisense dC*dA*dC*dA*dC*dA*dA*dC*dC*dT*dA*dC*dT*dT*dA*dC*dA*dC*dC*dA) [AS-II-2372-20]
- Reduced relative colony forming efficiency, HCT116 (% inhibition of colony forming ability) [6]: 64.7%
- Reduced relative colony forming efficiency, MDA-MB-231 (% inhibition of colony forming ability) [1]: 90.09%
- Reduced relative colony forming efficiency, A549 (% inhibition of colony forming ability) (A549 lung cell carcinoma): 96.41%
- Reduced relative colony forming efficiency, MIA PaCa-2 (% inhibition of colony forming ability) [3]: 94.36%
- Reduced relative colony forming efficiency, T24 (% inhibition of colony forming ability) [4]: 61.13%
- Reduced relative colony forming efficiency, PC-3 (% inhibition of colony forming ability) [5]: 86.06%

Substance: CGGGTCCGTGATGGGCGCGA (antisense dC*dG*dG*dG*dT*dC*dC*dG*dT*dG*dA*dT*dG*dG*dG*dC*dG*dC*dG*dA) [AS-II-217-20]
- Reduced relative colony forming efficiency, HCT116 (% inhibition of colony forming ability) [6]: 61.85%
- Reduced relative colony forming efficiency, MDA-MB-231 (% inhibition of colony forming ability) [1]: 52.7%
- Reduced relative colony forming efficiency, HepG2 (% inhibition of colony forming ability) [2]: 99.55%
- Reduced relative colony forming efficiency, MIA PaCa-2 (% inhibition of colony forming ability) [3]: 87.38%
- Reduced relative colony forming efficiency, T24 (% inhibition of colony forming ability) [4]: 65.02%
- Reduced relative colony forming efficiency, PC-3 (% inhibition of colony forming ability) [5]: 87.41%

Substance: GACATCACTCCCATCCTCTG (antisense dG*dA*dC*dA*dT*dC*dA*dC*dT*dC*dC*dC*dA*dT*dC*dC*dT*dC*dT*dG) [AS-II-1302-20]
- Reduced relative colony forming efficiency, HCT116 (% inhibition of colony forming ability) [6]: 71.98%
- Reduced relative colony forming efficiency, MDA-MB-231 (% inhibition of colony forming ability) [1]: 92.2%
- Reduced relative colony forming efficiency, A549 (% inhibition of colony forming ability) (A549 lung cell carcinoma): 93.17%
- Reduced relative colony forming efficiency, MIA PaCa-2 (% inhibition of colony forming ability) [3]: 23.86%
- Reduced relative colony forming efficiency, T24 (% inhibition of colony forming ability) [4]: 70.56%
- Reduced relative colony forming efficiency, PC-3 (% inhibition of colony forming ability) [5]: 79.01%

Substance: GAGAAATAAAATGAAACGGC (antisense dG*dA*dG*dA*dA*dA*dT*dA*dA*dA*dA*dT*dG*dA*dA*dA*dC*dG*dG*dC) [AS-II-2164-20]
- Reduced relative colony forming efficiency, HCT116 (% inhibition of colony forming ability) [6]: 50.08%
- Reduced relative colony forming efficiency, MDA-MB-231 (% inhibition of colony forming ability) [1]: 69.03%
- Reduced relative colony forming efficiency, A549 (% inhibition of colony forming ability) (A549 lung cell carcinoma): 91.15%
- Reduced relative colony forming efficiency, HepG2 (% inhibition of colony forming ability) [2]: 93.07%
- Reduced relative colony forming efficiency, MIA PaCa-2 (% inhibition of colony forming ability) [3]: 89.36%
- Reduced relative colony forming efficiency, T24 (% inhibition of colony forming ability) [4]: 61.84%
- Reduced relative colony forming efficiency, PC-3 (% inhibition of colony forming ability) [5]: 83.36%

Substance: GCAAAGAAAGCCAGAACATG (antisense dG*dC*dA*dA*dA*dG*dA*dA*dA*dG*dC*dC*dA*dG*dA*dA*dC*dA*dT*dG) [AS-II-579-20]
- Reduced relative colony forming efficiency, HCT116 (% inhibition of colony forming ability) [6]: 69.08%
- Reduced relative colony forming efficiency, MDA-MB-231 (% inhibition of colony forming ability) [1]: 66.89%
- Reduced relative colony forming efficiency, A549 (% inhibition of colony forming ability) (A549 lung cell carcinoma): 95.49%
- Reduced relative colony forming efficiency, HepG2 (% inhibition of colony forming ability) [2]: 94.28%
- Reduced relative colony forming efficiency, MIA PaCa-2 (% inhibition of colony forming ability) [3]: 97.55%
- Reduced relative colony forming efficiency, T24 (% inhibition of colony forming ability) [4]: 76.68%
- Reduced relative colony forming efficiency, PC-3 (% inhibition of colony forming ability) [5]: 88.16%

Substance: GCAAAGGCTACAACACGTTC (antisense dG*dC*dA*dA*dA*dG*dG*dC*dT*dA*dC*dA*dA*dC*dA*dC*dG*dT*dT*dC) [AS-II-861-20]
- Reduced relative colony forming efficiency, HCT116 (% inhibition of colony forming ability) [6]: 74.2%
- Reduced relative colony forming efficiency, MDA-MB-231 (% inhibition of colony forming ability) [1]: 89.98%
- Reduced relative colony forming efficiency, A549 (% inhibition of colony forming ability) (A549 lung cell carcinoma): 95.78%
- Reduced relative colony forming efficiency, HepG2 (% inhibition of colony forming ability) [2]: 96.08%
- Reduced relative colony forming efficiency, MIA PaCa-2 (% inhibition of colony forming ability) [3]: 97.3%
- Reduced relative colony forming efficiency, T24 (% inhibition of colony forming ability) [4]: 73.5%
- Reduced relative colony forming efficiency, PC-3 (% inhibition of colony forming ability) [5]: 87.33%

Substance: GCACATCTTCAGTTCATTTA (antisense dG*dC*dA*dC*dA*dT*dC*dT*dT*dC*dA*dG*dT*dT*dC*dA*dT*dT*dT*dA) [AS-II-1362-20]
- Reduced relative colony forming efficiency, HCT116 (% inhibition of colony forming ability) [6]: 78.47%
- Reduced relative colony forming efficiency, MDA-MB-231 (% inhibition of colony forming ability) [1]: 70.22%
- Reduced relative colony forming efficiency, A549 (% inhibition of colony forming ability) (A549 lung cell carcinoma): 83.9%
- Reduced relative colony forming efficiency, HepG2 (% inhibition of colony forming ability) [2]: 80.41%
- Reduced relative colony forming efficiency, MIA PaCa-2 (% inhibition of colony forming ability) [3]: 44.14%
- Reduced relative colony forming efficiency, PC-3 (% inhibition of colony forming ability) [5]: 77.38%

Substance: GCCACAGGATAAAAACACAA (antisense dG*dC*dC*dA*dC*dA*dG*dG*dA*dT*dA*dA*dA*dA*dA*dC*dA*dC*dA*dA) [AS-II-2009-20]
- Reduced relative colony forming efficiency, HCT116 (% inhibition of colony forming ability) [6]: 69.92%
- Reduced relative colony forming efficiency, MDA-MB-231 (% inhibition of colony forming ability) [1]: 96.25%
- Reduced relative colony forming efficiency, A549 (% inhibition of colony forming ability) (A549 lung cell carcinoma): 93.32%
- Reduced relative colony forming efficiency, HepG2 (% inhibition of colony forming ability) [2]: 96.99%
- Reduced relative colony forming efficiency, MIA PaCa-2 (% inhibition of colony forming ability) [3]: 93.74%
- Reduced relative colony forming efficiency, T24 (% inhibition of colony forming ability) [4]: 61.84%
- Reduced relative colony forming efficiency, PC-3 (% inhibition of colony forming ability) [5]: 83.36%

Substance: GGGCACATCTTCAGTTCATT (antisense dG*dG*dG*dC*dA*dC*dA*dT*dC*dT*dT*dC*dA*dG*dT*dT*dC*dA*dT*dT) [AS-II-1364-20]
- Reduced relative colony forming efficiency, HCT116 (% inhibition of colony forming ability) [6]: 77.29%
- Reduced relative colony forming efficiency, MDA-MB-231 (% inhibition of colony forming ability) [1]: 93.87%
- Reduced relative colony forming efficiency, A549 (% inhibition of colony forming ability) (A549 lung cell carcinoma): 95.59%
- Reduced relative colony forming efficiency, MIA PaCa-2 (% inhibition of colony forming ability) [3]: 59.34%
- Reduced relative colony forming efficiency, T24 (% inhibition of colony forming ability) [4]: 66.59%
- Reduced relative colony forming efficiency, PC-3 (% inhibition of colony forming ability) [5]: 79.01%

Substance: TGCCTCCGACCCTTCCCATT (antisense dT*dG*dC*dC*dT*dC*dC*dG*dA*dC*dC*dC*dT*dT*dC*dC*dC*dA*dT*dT) [AS-II-14-20]
- Reduced relative colony forming efficiency, MDA-MB-231 (% inhibition of colony forming ability) [1]: 91.24%
- Reduced relative colony forming efficiency, HepG2 (% inhibition of colony forming ability) [2]: 88.4%
- Reduced relative colony forming efficiency, MIA PaCa-2 (% inhibition of colony forming ability) [3]: 47.93%
- Reduced relative colony forming efficiency, T24 (% inhibition of colony forming ability) [4]: 77.59%
- Reduced relative colony forming efficiency, PC-3 (% inhibition of colony forming ability) [5]: 92.76%

Substance: TTAGTGGTCAGGAGAATGTA (antisense dT*dT*dA*dG*dT*dG*dG*dT*dC*dA*dG*dG*dA*dG*dA*dA*dT*dG*dT*dA) [AS-II-1819-20]
- Reduced relative colony forming efficiency, MDA-MB-231 (% inhibition of colony forming ability) [1]: 90.68%
- Reduced relative colony forming efficiency, HepG2 (% inhibition of colony forming ability) [2]: 83.89%
- Reduced relative colony forming efficiency, MIA PaCa-2 (% inhibition of colony forming ability) [3]: 20.02%
- Reduced relative colony forming efficiency, T24 (% inhibition of colony forming ability) [4]: 53.74%
- Reduced relative colony forming efficiency, PC-3 (% inhibition of colony forming ability) [5]: 85.46%

— patent publication US20080311126A1, “Antisense Oligonucleotides Directed to Ribonucleotide Reducatase R2 and Uses Thereof in Combination Therapies for the Treatment of Cancer” (Genesense Technologies, Inc, priority 2004, published 2008)
